How the values were obtained:
Type in all cases: biochemical
Ret = target: T1, Ret (Homo sapiens, UniProt P07949); assay: AlphaScreen kinase assay, Ret; conditions: read-out: IC50, activity toward kinase Ret
T1 construct: P1378.pET-SF BI-PTP RET H661-R1012 HIS; made in house
T1 sequence (P07949 with tags, fused parts or gaps): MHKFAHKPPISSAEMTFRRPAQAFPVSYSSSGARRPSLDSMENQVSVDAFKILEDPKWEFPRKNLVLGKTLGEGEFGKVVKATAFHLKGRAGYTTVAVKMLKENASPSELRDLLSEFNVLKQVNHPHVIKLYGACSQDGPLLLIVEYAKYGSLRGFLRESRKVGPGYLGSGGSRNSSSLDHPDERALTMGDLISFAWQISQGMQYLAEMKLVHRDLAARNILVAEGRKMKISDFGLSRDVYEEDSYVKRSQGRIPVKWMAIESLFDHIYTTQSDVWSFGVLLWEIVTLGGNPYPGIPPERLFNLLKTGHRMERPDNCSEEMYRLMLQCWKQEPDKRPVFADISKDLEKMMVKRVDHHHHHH

Pyk2 = target: T2, Pyk2 (Homo sapiens, UniProt Q14289); assay: AlphaScreen kinase assay, Pyk2; conditions: read-out: IC50, activity toward kinase Pyk2
T2 construct: purchased Upstate Biotechnology
T2 sequence (Q14289 whole entry): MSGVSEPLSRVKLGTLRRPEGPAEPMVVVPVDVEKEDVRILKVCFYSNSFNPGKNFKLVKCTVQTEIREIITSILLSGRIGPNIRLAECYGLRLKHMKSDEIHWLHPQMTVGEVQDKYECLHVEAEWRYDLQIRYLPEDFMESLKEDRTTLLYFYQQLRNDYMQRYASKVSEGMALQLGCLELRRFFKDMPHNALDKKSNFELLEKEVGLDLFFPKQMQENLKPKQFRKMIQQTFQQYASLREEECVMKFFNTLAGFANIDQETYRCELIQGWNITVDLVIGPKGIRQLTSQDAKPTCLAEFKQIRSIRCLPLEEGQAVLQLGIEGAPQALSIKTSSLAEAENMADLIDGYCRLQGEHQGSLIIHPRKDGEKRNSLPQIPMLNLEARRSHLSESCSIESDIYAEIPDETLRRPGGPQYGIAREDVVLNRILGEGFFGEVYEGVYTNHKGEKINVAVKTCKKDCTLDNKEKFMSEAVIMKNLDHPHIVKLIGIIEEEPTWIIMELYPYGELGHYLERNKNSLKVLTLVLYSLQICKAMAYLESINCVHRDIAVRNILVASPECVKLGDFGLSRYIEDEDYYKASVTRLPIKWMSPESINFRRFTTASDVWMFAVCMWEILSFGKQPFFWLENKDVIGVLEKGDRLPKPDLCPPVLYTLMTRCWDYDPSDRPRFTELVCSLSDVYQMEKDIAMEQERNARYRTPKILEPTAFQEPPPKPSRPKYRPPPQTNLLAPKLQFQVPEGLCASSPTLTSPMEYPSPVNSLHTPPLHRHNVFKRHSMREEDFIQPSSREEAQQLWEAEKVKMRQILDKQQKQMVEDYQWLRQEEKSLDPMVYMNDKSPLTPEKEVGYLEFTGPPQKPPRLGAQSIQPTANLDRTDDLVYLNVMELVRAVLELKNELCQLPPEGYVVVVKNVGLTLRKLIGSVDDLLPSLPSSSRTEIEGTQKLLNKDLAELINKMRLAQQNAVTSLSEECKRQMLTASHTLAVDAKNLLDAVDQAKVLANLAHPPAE

B-Raf V600E = target: T3, B-Raf V600E (Homo sapiens, UniProt P15056, V600E); assay: AlphaScreen kinase assay, B-Raf V600E; conditions: read-out: IC50, activity toward kinase B-Raf V600E
T3 construct: P4254. pFastBacBD-CDC37 BRAF D437-K722-X, V600E; His6 with pFastBac HT leader (TEV site) (N); made in house; host or cells: Sf9 (baculovirus; chaperone CDC37 co-expressed)
T3 sequence (P15056 with tags, fused parts or gaps V600E): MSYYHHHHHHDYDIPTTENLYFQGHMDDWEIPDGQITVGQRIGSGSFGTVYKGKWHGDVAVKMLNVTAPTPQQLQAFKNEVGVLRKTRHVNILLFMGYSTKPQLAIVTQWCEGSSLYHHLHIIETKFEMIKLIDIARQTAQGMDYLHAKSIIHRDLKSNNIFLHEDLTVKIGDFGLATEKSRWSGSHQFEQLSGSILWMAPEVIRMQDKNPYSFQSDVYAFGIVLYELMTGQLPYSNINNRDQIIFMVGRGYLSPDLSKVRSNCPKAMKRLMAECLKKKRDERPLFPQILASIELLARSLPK

c-Raf-1 = target: T4, c-Raf-1 (Homo sapiens, UniProt P04049); assay: AlphaScreen kinase assay, c-Raf-1; conditions: read-out: IC50, activity toward kinase c-Raf-1
T4 construct: purchased Upstate Biotechnology
T4 sequence (P04049 whole entry): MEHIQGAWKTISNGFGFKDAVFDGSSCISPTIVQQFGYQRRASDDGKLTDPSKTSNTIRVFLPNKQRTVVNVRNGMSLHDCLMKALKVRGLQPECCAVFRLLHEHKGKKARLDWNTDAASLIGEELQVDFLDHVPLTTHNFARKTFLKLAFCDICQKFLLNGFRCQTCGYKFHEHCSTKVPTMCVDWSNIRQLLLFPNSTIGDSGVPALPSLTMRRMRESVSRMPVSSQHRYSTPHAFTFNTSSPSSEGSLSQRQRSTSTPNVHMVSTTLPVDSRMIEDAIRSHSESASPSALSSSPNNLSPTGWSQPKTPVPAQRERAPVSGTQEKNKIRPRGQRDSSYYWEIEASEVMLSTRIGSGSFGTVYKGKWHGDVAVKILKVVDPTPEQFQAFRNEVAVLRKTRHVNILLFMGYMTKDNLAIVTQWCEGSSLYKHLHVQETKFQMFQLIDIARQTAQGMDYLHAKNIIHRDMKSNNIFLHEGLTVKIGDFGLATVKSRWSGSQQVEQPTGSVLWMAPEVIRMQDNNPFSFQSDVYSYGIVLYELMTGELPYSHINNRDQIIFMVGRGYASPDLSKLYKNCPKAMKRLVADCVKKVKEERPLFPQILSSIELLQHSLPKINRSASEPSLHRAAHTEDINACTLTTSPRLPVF

Kdr = target: T5, Kdr (Homo sapiens, UniProt P35968); assay: Z'-Lyte FRET kinase assay (Invitrogen), Kdr; conditions: read-out: IC50, activity toward kinase Kdr
T5 construct: purchased Invitrogen (assay run by Invitrogen)

FGFR1 = target: T6, FGFR1 (Homo sapiens, UniProt P11362, C488A/C584S); assay: AlphaScreen kinase assay, FGFR1; conditions: read-out: IC50, activity toward kinase FGFR
T6 construct: P1351.pET N6 BI-PTP FGFR A458-E765-X C488A, C584S; made in house; host or cells: E. coli (PTP1B co-expressed)
T6 sequence (P11362 458-765 C488A/C584S): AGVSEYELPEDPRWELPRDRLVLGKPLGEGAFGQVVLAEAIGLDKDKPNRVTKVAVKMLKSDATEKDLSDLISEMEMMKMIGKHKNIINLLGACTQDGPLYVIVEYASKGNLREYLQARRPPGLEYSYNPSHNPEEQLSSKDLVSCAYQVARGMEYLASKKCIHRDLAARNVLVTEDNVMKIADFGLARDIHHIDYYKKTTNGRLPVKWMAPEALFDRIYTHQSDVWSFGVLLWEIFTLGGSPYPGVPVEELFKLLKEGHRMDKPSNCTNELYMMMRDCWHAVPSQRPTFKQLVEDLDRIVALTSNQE

B-Raf = target: T7, B-Raf (Homo sapiens, UniProt P15056); assay: AlphaScreen kinase assay, B-Raf; conditions: read-out: IC50, activity toward kinase B-Raf
T7 construct: purchased Upstate Biotechnology
T7 sequence (P15056 whole entry): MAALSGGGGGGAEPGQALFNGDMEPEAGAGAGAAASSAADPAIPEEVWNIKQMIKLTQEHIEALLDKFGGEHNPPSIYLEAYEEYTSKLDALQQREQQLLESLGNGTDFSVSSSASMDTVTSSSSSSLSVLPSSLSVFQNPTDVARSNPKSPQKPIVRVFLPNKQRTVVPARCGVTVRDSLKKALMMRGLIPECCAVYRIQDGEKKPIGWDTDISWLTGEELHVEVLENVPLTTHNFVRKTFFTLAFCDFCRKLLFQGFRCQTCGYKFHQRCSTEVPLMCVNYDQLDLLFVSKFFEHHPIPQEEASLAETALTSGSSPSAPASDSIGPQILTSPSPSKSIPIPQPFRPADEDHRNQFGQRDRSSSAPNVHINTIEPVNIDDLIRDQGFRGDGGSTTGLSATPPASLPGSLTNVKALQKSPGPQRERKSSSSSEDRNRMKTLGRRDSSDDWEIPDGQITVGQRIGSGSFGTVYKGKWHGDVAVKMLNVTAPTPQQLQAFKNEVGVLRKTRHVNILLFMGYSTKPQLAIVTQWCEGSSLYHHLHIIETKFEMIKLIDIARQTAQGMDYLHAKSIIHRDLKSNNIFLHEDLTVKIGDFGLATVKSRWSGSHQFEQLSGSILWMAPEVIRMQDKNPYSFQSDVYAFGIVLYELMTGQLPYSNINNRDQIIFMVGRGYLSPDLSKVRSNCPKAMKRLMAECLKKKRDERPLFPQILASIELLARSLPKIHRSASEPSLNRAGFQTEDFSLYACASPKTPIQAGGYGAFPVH

Kit = target: T8, Kit (Homo sapiens, UniProt P10721); assay: AlphaScreen kinase assay, Kit; conditions: read-out: IC50, activity toward kinase Kit
T8 construct: P1332.N6 BI PTP KIT M552-K948-X COD; His6 (N); made in house; host or cells: E. coli (PTP1B co-expressed)
T8 sequence (P10721 with tags, fused parts or gaps): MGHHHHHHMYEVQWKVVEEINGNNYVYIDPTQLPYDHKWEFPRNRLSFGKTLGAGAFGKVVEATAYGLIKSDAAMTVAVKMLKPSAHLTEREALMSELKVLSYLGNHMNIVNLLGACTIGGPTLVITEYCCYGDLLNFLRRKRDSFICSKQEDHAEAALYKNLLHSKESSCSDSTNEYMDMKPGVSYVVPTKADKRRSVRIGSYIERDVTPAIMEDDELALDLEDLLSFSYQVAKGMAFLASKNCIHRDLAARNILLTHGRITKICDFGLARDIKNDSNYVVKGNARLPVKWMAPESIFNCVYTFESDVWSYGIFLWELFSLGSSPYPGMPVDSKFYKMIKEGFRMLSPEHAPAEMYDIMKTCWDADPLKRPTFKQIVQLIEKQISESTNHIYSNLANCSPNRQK

Jnk3 = target: T9, Jnk3 (Homo sapiens, UniProt P53779); assay: AlphaScreen kinase assay, Jnk3; conditions: read-out: IC50, activity toward kinase Jnk3
T9 construct: purchased Upstate Biotechnology
From the text: (§1) AlphaScreen assay was used to screen additional kinases. The assay is similarly dependent on the phosphorylation of a peptide substrate. In this assay, an antibody that recognizes phosphorylated substrate is bound to an acceptor bead. The peptide substrate is attached to biotin, which binds to a donor head that contains streptavidin. Thus phosphorylated substrate is bound by antibody and streptavidin, bringing the donor and acceptor heads into close proximity when kinase is not inhibited. The donor produces singlet oxygen which results in emission from the acceptor when they are in close proximity. Conversely, when kinase is inhibited, the donor and acceptor beads are not associated and the emission from the acceptor is reduced.
(§2) AlphaScreen assays were done using compounds dissolved in DMSO to a concentration of 20 mM. The compounds were diluted accordingly to the desired final concentrations in each sample well, using 1:3 serial dilution for a total of 8 concentration points. Plates were prepared such that each kinase reaction is 20 μl in 1× kinase buffer, 5% DMSO and 10 μM ATP. After incubation of the kinase reaction for 1 hour at room temperature, 5 μl of donor beads in stop buffer (50 mM EDTA in 1× kinase buffer) was added, the sample was mixed and incubated for 20 minutes at room temperature before adding 5 μl of acceptor beads in stop buffer. The samples were incubated for 60 minutes at room temperature and the signal per well was read on AlphaQuest reader.

Src = target: T10, Src (Homo sapiens, UniProt P12931); assay: AlphaScreen kinase assay, Src; conditions: read-out: IC50, activity toward kinase Src
T10 construct: P1144. pET-N6 BI-PTP SRC V86-L536-X; made in house
T10 sequence (P12931 with tags, fused parts or gaps): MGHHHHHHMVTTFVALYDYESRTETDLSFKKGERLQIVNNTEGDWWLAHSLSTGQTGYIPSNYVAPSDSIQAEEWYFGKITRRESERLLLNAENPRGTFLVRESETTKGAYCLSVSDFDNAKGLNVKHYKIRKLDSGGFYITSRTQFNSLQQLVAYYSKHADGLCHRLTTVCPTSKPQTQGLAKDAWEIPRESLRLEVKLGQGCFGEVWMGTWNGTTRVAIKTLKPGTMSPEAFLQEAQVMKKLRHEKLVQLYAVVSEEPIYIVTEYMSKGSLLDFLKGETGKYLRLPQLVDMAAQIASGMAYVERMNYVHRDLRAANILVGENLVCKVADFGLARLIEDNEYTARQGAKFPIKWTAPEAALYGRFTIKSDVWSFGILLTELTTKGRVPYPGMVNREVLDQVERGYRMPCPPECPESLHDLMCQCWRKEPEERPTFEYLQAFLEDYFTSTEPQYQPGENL
From the text: as §1, §2

Fms = target: T11, Fms (Homo sapiens, UniProt P07333); assay: AlphaScreen kinase assay, Fms; conditions: read-out: IC50, activity toward kinase Fms
T11 construct: purchased Upstate Biotechnology
T11 sequence (P07333 20-972): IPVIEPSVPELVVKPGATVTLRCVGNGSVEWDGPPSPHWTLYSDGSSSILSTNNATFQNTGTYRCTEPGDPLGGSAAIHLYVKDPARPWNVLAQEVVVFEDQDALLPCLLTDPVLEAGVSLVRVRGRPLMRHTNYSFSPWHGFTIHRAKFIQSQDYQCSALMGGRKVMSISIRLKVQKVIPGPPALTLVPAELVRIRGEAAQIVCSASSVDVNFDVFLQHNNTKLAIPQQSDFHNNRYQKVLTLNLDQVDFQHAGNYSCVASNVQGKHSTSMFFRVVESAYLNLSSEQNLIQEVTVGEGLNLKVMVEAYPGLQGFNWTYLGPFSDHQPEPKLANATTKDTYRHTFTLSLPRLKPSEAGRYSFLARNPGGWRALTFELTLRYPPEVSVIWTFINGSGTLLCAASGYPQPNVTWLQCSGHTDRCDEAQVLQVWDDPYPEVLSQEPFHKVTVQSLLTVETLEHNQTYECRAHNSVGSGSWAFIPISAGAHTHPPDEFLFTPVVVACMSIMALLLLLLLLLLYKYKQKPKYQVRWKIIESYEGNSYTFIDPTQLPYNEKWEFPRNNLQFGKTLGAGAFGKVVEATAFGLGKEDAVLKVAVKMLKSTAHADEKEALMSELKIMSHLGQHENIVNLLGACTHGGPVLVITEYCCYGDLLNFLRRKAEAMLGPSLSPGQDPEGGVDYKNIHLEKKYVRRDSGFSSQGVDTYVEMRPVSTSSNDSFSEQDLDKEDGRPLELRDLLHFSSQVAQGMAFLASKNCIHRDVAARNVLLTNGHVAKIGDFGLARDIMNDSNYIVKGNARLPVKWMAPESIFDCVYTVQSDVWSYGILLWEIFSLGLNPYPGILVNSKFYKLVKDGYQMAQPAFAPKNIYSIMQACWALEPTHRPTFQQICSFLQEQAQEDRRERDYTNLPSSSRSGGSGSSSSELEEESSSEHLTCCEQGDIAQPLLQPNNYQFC

Flt1 = target: T12, Flt1 (Homo sapiens, UniProt P17948); assay: AlphaScreen kinase assay, Flt1; conditions: read-out: IC50, activity toward kinase Flt1
T12 construct: P1826.pETN6 BI-PTP FLT1 M799-D1165-X WT; His6 (N); made in house; host or cells: E. coli (PTP1B co-expressed)
T12 sequence (P17948 with tags, fused parts or gaps): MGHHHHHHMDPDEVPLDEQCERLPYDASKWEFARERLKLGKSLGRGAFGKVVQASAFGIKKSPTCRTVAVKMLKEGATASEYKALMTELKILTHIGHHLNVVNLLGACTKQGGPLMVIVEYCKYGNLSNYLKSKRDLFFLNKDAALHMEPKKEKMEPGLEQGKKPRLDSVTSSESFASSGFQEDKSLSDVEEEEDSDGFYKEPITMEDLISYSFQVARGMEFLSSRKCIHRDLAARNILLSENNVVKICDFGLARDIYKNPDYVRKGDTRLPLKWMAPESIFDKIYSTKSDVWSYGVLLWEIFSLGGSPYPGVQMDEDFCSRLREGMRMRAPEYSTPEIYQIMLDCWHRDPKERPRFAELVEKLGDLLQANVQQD

Jnk1 = target: T13, Jnk1 (Homo sapiens, UniProt P45983); assay: AlphaScreen kinase assay, Jnk1; conditions: read-out: IC50, activity toward kinase Jnk1
T13 construct: purchased Upstate Biotechnology

Measured: IC50

CC(=O)c1cccc(-c2ccnc3[nH]ccc23)c1 [Compound P-0116]
≤ 10 µM: Ret | Pyk2

O=C(c1ccc(O)cc1Cl)c1c[nH]c2ncc(Br)cc12 [Compound P-0137]
≤ 10 µM: B-Raf V600E | c-Raf-1 | Ret | Kdr | Pyk2 | FGFR1

COC(c1c(F)ccc(NS(=O)(=O)C(C)C)c1F)c1c[nH]c2ncc(Br)cc12 (stereo not shown) [Compound P-0356, Propane-2-sulfonic acid {3-[(5-bromo-1H-pyrrolo[2,3-b]pyridin-3-yl)-methoxy-methyl]-2,4-difluoro-phenyl}-amide]
≤ 10 µM: B-Raf V600E | c-Raf-1 | Pyk2 | B-Raf

COc1cccc(Cc2c[nH]c3ncc(-c4ccc(C(N)=O)cc4)cc23)c1 [Compound P-0697]
≤ 10 µM: Kit | Jnk3 | Ret | Pyk2 | B-Raf | FGFR1

CN(C)S(=O)(=O)Nc1ccc(F)c(C(=O)c2c[nH]c3ncc(-c4ccccc4)cc23)c1F [Compound P-0857]
not listed: Ret | Kdr | Jnk3 | Flt1 | Jnk1
≤ 10 µM: all other assays above

CCCS(=O)(=O)Nc1ccc(F)c(C(=O)c2c[nH]c3ncc(-c4cccc(OC)c4)cc23)c1F [Compound P-0874, Propane-1-sulfonic acid {2,4-difluoro-3-[5-(3-methoxy-phenyl)-1H-pyrrolo[2,3-b]pyridine-3-carbonyl]-phenyl}-amide]
not listed: Ret | Kdr | Jnk3 | Flt1 | Jnk1
≤ 10 µM: all other assays above

CCCS(=O)(=O)Nc1ccc(F)c(C(=O)c2c[nH]c3ncc(-c4ccc(C(F)(F)F)cc4)cc23)c1F [Compound P-0912, Propane-1-sulfonic acid {2,4-difluoro-3-[5-(4-trifluoromethyl-phenyl)-1H-pyrrolo[2,3-b]pyridine-3-carbonyl]-phenyl}-amide]
≤ 10 µM: B-Raf V600E | c-Raf-1 | Pyk2 | B-Raf | FGFR1

CCCS(=O)(=O)Oc1ccc(F)c(C(=O)c2c[nH]c3ncc(Br)cc23)c1F [Compound P-0919, propane-1-sulfonic acid 3-(5-bromo-1H-pyrrolo[2,3-b]pyridine-3-carbonyl)-2,4-difluoro-phenyl ester]
≤ 10 µM: B-Raf V600E | Kit | c-Raf-1 | Fms | Pyk2 | B-Raf | FGFR1

CCCS(=O)(=O)Nc1ccc(F)c(C(O)c2c[nH]c3ncc(Nc4ccccc4)cc23)c1F (stereo not shown) [Compound P-0928]
≤ 10 µM: B-Raf V600E | c-Raf-1 | Pyk2 | B-Raf

CCCS(=O)(=O)Nc1ccc(F)c(C(O)c2c[nH]c3ncc(-c4ccccc4)cc23)c1F (stereo not shown) [Compound P-0946]
≤ 10 µM: B-Raf V600E | c-Raf-1 | Pyk2 | B-Raf

COC(c1c(F)ccc(NS(=O)(=O)C(C)C)c1F)c1c[nH]c2ncc(-c3cccnc3)cc12 (stereo not shown) [Compound P-0947, Propane-2-sulfonic acid {2,4-difluoro-3-[methoxy-(5-pyridin-3-yl-1H-pyrrolo[2,3-b]pyridin-3-yl)-methyl]-phenyl}-amide]
≤ 10 µM: B-Raf V600E | c-Raf-1 | Pyk2 | B-Raf | FGFR1

CCCS(=O)(=O)Nc1ccc(F)c(C(OC)c2c[nH]c3ncc(-c4ccccc4)cc23)c1F (stereo not shown) [Compound P-0957]
≤ 10 µM: B-Raf V600E | c-Raf-1 | Pyk2

CCCS(=O)(=O)Nc1ccc(F)c(Cc2c[nH]c3ncc(N4CCOCC4)cc23)c1F [Compound P-0964, Propane-1-sulfonic acid [2,4-difluoro-3-(5-morpholin-4-yl-1H-pyrrolo[2,3-b]pyridin-3-ylmethyl)-phenyl]-amide]
≤ 10 µM: B-Raf V600E | Kit | c-Raf-1 | Pyk2 | FGFR1

CCCC(=O)Nc1ccc(F)c(C(OC)c2c[nH]c3ncc(OC)cc23)c1F (stereo not shown) [Compound P-1368]
≤ 10 µM: B-Raf V600E | Kit | Fms | Pyk2

CCCC(=O)Nc1ccc(F)c(C(=O)c2c[nH]c3ncc(OC)cc23)c1F [Compound P-1370]
≤ 10 µM: Flt1 | B-Raf V600E | Kit | Fms | Jnk1 | Pyk2

Clc1cccc(Nc2ccc3cc[nH]c3n2)c1 [Compound P-1373, (3-Chloro-phenyl)-(1H-pyrrolo[2,3-b]pyridin-6-yl)-amine]
≤ 10 µM: Flt1 | Pyk2

Clc1ccccc1Nc1ccc2cc[nH]c2n1 [Compound P-1375, (2-Chloro-phenyl)-(1H-pyrrolo[2,3-b]pyridin-6-yl)-amine]
≤ 10 µM: Jnk3 | Pyk2

Cc1cc(Nc2ccc3cc[nH]c3n2)no1 [Compound P-1376, (5-Methyl-isoxazol-3-yl)-(1H-pyrrolo[2,3-b]pyridin-6-yl)-amine]
≤ 10 µM: Kit | Fms | Pyk2

OC(c1ccccc1OCc1ccccc1)c1c[nH]c2ncc(Br)cc12 (stereo not shown) [Compound P-1380]
≤ 10 µM: Kit | Fms | Pyk2 | FGFR1
